Measured values reported in patent US8304238B2, “Cell culture medium and immobilized preparation of cell adhesion protein or peptide” (Nat'l Institute for Environmental Studies, priority 2003, dated 2012).
Where no end group is shown, it is not given here.

Assays:
Format in all cases: cell-based
[1] = system: alveolar type II epithelial cells (T2 cells); assay: Adhesion of T2 cells to immobilized cell adhesion peptide substrates and inhibition by the same free peptide; conditions: for Inhibition degree of cell adhesion, Free peptide: T2 cells on immobilized peptide, same free peptide coexistent at 0.25 mg/ml; for Competitive inhibition of cell adhesion by the same free cell adhesion peptide: immobilized by MMAC or MAST, free peptide 0.25 mg/ml
Protocol: All treatments are assumed to be aseptic treatments. First, in the case of cell adhesion proteins, 10 μg/ml of a hydrophobic binding-adsorptive polymer, such as MMAC and MAST, and in the case of peptides, 50 μg/ml of MMAC and MAST is dissolved in ethanol, the solution is filtered and poured by 50 μl each into a 96-well with no surface treatment for cell culture, leave it stand still for a while, and then MMAC etc., are removed and air-drying is conducted. Next, 10-20 μg/ml of cell adhesion protein or 0.25 mg/ml of peptide is dissolved in 0.1 M triethanolamine buffer, a solution of pH 8.8, and the mixture was poured by 50 μl each into a 96-well previously coated with MMAC etc. The solution is reacted overnight while humidifying in an incubator heated at 37° C. After the reaction finishes, the reaction liquid is absorbed, the remaining reaction solution is rinsed out with the medium, and the immobilized preparation of cell adhesion proteins or peptides is prepared. The preparation, as described in the following Examples, can be used for cell cultures as cell adhesion protein or peptide substrates.
T2 cells suspended in the serum-free DMEM medium at the concentration of 6×10^4 cells/100 μl were seeded in the well prepared according to the manner in Example 6, wherein cell adhesion peptides were immobilized, and cultured in a CO2 incubator at 37° C. for 24 hours. Then, in accordance with the manner in Example 7, the cells were fixed with methanol, stained, and the absorbance was measured. Just before seeding the cells, the free peptides, the same kind as the cell adhesion peptides used for immobilization, were also added to the cell suspension, and the absorbance was measured after the culture in the same manner as described above. As to the case wherein FN was applied as a standard material, the measurement was conducted as well.
FIGS. 4 and 5 show the results obtained with the use of wells prepared by using laminin α-chain G-peptides and FIB-1 peptide as cell adhesion peptides, and as a hydrophobic binding-adsorptive polymer, MMAC was used in FIG. 4, and MAST was used in FIG. 5.

[2] = system: alveolar type II epithelial cells (T2 cells); assay: Inhibition of T2 cell adhesion to immobilized cell adhesion peptide substrates by heparin treatment; conditions: 24-hour culture; for Inhibition of cell adhesion to immobilized peptide by heparin treatment: 100 μg/ml heparin 2 hours
Protocol: 100 μg/ml of heparin solution was poured into a well prepared according to the method in Example 6, wherein the cell adhesion peptides were immobilized, and the incubation was conducted for 2 hours. The heparin solution was removed after heparin bound to the immobilized cell adhesion peptides, and T2 cell suspension was seeded on the well.
It is theoretically shown that after the cell adhesion peptides first bind to heparin and are covered with heparin, the cell adhesion receptors having heparin-like sugar chain (heparan sulfate) present on the cell surface, in other words, syndecan, a protein that belongs to heparan sulfate proteoglycan, cannot bind to the cell adhesion peptides by using the sugar chain part of the heparan sulfate, thereby the cell adhesion is inhibited.

[3] = system: alveolar type II epithelial cells (T2 cells); assay: Binding strength (affinity) of immobilized LN peptides to T2 cells relative to immobilized FIB-1 (mixed immobilization, free FIB-1 competition); design: key to Binding strength to T2 cells, Comprehensive evaluation: AA: extremely strongly binding/adhering; A: strongly binding/adhering; B: intermediately binding/adhering (as the same degree as FIB-1 peptide); C: more weakly binding/adhering than FIB-1 peptide; conditions: for Binding strength to T2 cells, Comprehensive evaluation: classification relative to FIB-1 peptide; for Binding strength to T2 cells, Ratio to FIB-1: inverse of mixing ratio at transitional midpoint, MMAC-coated well
Protocol: Therefore, the amount of FIB-1 peptide was set at 0.25 mg/ml, and AG73 peptide was mixed therewith, while changing its concentration ratio, from 1/1.250 of FIB-1 in an amount which is 0.20 μg/ml, to ½ of FIB-1 in an amount which is 0.125 mg/ml, and the mixture was immobilized on a well wherein a hydrophobic binding-adsorptive polymer MMAC was coated. The amount of cell adhesion in the case where T2 cells were cultured under a serum-free condition for 1 day on the immobilized peptides is shown in FIG. 9, in comparison with the case where the culture was conducted on the immobilized FIB-1, which was set at 100%.
However, in a case that the ratio of FIB-1:AG73 increased to 1:0.02, because T2 cells already transited to be adherent through the immobilized AG73 peptide, free FIB-1 peptide could no longer inhibit the cell adhesion. […] Likewise, with regard to A3G72 and A4G82 peptides, because the mixing ratio at the transitional midpoint=0.1, their binding strength to T2 cells is 10 times as much as that of FIB-1.
The method used in FIGS. 8 and 9 is extremely effective as a convenient method by which a relative order can be measured concerning to the binding strength (affinity) of cell adhesion peptides and the strength of cell adhesion can be considered quantitatively.
In Table 1, the classification is shown based on the results of the affinity (bonding/adhesion strength) between FIB-1 peptide containing RGD amino acid sequence of FN molecule, a binding site to integrin, and T2 cells: laminin α-chain G-domain peptides are classified into class AA, extremely strong binding/adhesion; class A, strong adhesion; class B, adhesion as the same degree as FIB-1; and class C, binding weaker than the described above.

[4] = system: alveolar type II epithelial cells (T2 cells); assay: Inhibition by free cell adhesion peptides of T2 cell adhesion to coated cell adhesion proteins FN, Col I, LN, VN; conditions: free peptide 0.25 mg/ml; serum-free, 1 day
Protocol: Commercially available FN, LN and VN, usually used as cell adhesion proteins at cell culture, were coated to wells at the concentrations of 5 μg/ml, 10 μg/ml and 10 μg/ml, respectively. In case of Col I (collagen type I), Col I at the concentration of 100 μg/ml, dissolved in 1 mM HCl, was poured into a well, left stand still for a while, and then the solution was removed and air-drying was conducted, and rinsed with the medium, before use. Next, 6×10^5 cells/ml of alveolar type II epithelial cells (T2 cells) suspended in the serum-free DMEM medium was seeded by 100 μl each on a 96-well to which the extracellular matrix was coated, and cultured in a CO2 incubator at 37° C. for 1 day. After the culture was finished, the cells were fixed with 100 μl of methanol for 5 minutes, and stained for 30 minutes with 50 μl of 0.4% crystal violet. Excessive staining was washed with water, then the number of cells adhered to FN, Col I, LN and VN, which had been coated to the wells, was counted based on the absorbance of cytoplasm (A595).
On the other hand, among amino acid sequences of various LN molecules, the sequences that induce cell adhesion are known to be present. […] Then, the number of cells was counted in accordance with the method described above.

[5] = system: alveolar type II epithelial cells (T2 cells); assay: Inhibition of T2 cell adhesion by free peptide different from the immobilized peptide substrate; conditions: for Inhibition by free peptide of T2 cell adhesion to immobilized AG73: AG73 (etc.) immobilized; for Inhibition by free peptide of T2 cell adhesion to immobilized FIB-1: FIB-1 immobilized; for Inhibition by free peptide of T2 cell adhesion to immobilized AG81.2 and AG73T: AG81.2 and AG73T immobilized
Protocol: Results obtained by adding the free peptides different from the immobilized peptides when T2 cells were cultured on the immobilized peptide prepared according to the method in Example 7, were shown in FIG. 8.
When adding the free peptides that were the same as the immobilized peptides in the culture medium, the both (free and immobilized) peptides compete for syndecan of T2 cells and as a result, the cell adhesion is inhibited (see Example 7). So far, four types of syndecans are genetically known. Whether these syndecans are commonly owned or accommodated by each peptide, overlapping only by some degrees, otherwise mutually exclusive, was examined herein.

[6] = system: alveolar type II epithelial cells (T2 cells); assay: Inhibition of T2 cell adhesion to immobilized pseudomatrix by treatment with polyclonal antibodies for the peptides
Protocol: Each pseudomatrix prepared in Example 13 to which cell adhesion peptide was bound (MBAC-peptide) was diluted in DMEM medium to the concentration of 1-10 μg/ml, poured into a 96-well by 100 μl each, and left still overnight in a CO2 incubator to be adsorbed and immobilized on the wells. Non-adsorbed MBAC-peptides were removed by rinsing well with DMEM medium. Next, 100 μl of antibodies diluted with serum-free DMEM to the concentration of 4-10 μg/ml was poured into a well, incubated for 2-4 hours to let the antibodies bind to the peptides. Normal IgG was used for control groups. Antibodies were removed after the treatment, T2 cells suspended at the concentration of 6×10^5 cells/ml were seeded by 100 μl each. After 1-day serum-free culture, T2 cells were fixed with 100 μl of methanol for 5 minutes, and stained with 50 μl of 0.4% crystal violet for 30 minutes. Excessive staining was washed with water, and the number of adhering cells was counted based on the absorbance of cytoplasm (A595).

Substance	Inhibition degree of cell adhesion, Free peptide [1]	Competitive inhibition of cell adhesion by the same free cell adhesion peptide [1]	Inhibition of cell adhesion to immobilized peptide by heparin treatment [2]	Binding strength to T2 cells, Comprehensive evaluation [3]	Inhibition degree of cell adhesion, Heparin ([2]; immobilized peptide treated with 100 μg/ml heparin 2 hours)	Binding strength to T2 cells, Ratio to FIB-1 ([3]; FIB-1 0.25 mg/ml)	Mixing ratio at the transitional midpoint ([3]; peptide:FIB-1 co-immobilized, FIB-1 0.25 mg/ml, loss of inhibition by free FIB-1)	Inhibition of adhesion of T2 cells to FN, Col I, LN and VN by free peptide [4]	Inhibition by free peptide of T2 cell adhesion to immobilized AG73 [5]	Inhibition by free peptide of T2 cell adhesion to immobilized FIB-1 [5]	Inhibition by free peptide of T2 cell adhesion to immobilized AG81.2 and AG73T [5]	Cell adhesion ability of immobilized pseudomatrix compared with coated FN ([6]; MBAC-peptide 1-10 μg/ml in DMEM)	Inhibition of cell adhesion by treatment with antibodies for the peptides ([6]; antibodies 4-10 μg/ml, 2-4 hours)
GEKSQFSIRLKT	No	without competitive inhibition	inhibition of adhesion	C									
GPLPSYLQFVGI				B	No	<1	about 1	inhibited adhesion of T2 cells	inhibited the cell adhesion	could inhibit			
KNRLTIELEVRT	No	without competitive inhibition	inhibition of adhesion	C									
LQQRRSVLRTKI	No	without competitive inhibition	inhibition of adhesion	C					cannot inhibit it	could not inhibit	could not competitively inhibit their immobilized peptide, or even if they can, only slightly		
MBAC-AG73T: pseudomatrix: MBAC polymer reacted with AG73T peptide (LQQRRSVLRTKI)												the same level of cell adhesion ability as in the case where FN was coated	specifically inhibited
RNRLHLSMLVRP		without competitive inhibition	inhibition of adhesion	C									
TLQLQEGRLHFM	No	without competitive inhibition	inhibition of adhesion	C									
VKTEYIKRKAFM	No	without competitive inhibition	inhibition of adhesion	C		<1			cannot inhibit it	could not inhibit	could not competitively inhibit their immobilized peptide, or even if they can, only slightly		
